Results: patent US20210008541A1, “INSTRUMENT AND METHODS FOR AUTOMATED SAMPLE PREPARATION FOR MICROORGANISM IDENTIFICATION AND DIFFERENTIATION” (Accelerate Diagnostics, Inc., priority 2019, published 2021)

Experiments:
ECOL_ATCC_25922 = test: Disk diffusion inhibition of RAM ingredients on MHA plates; format: cell-based, Escherichia coli; conditions: 100 μL dispensed on MHA plate, lawned with ECOL_ATCC_25922
Experimental: (§1) Thus, each of the ingredients was checked for potential inhibition. The first portion of this study was meant to determine the source of inhibition and to formulate different variations of a respiratory artificial matrix (RAM) to use as a pellet former. To complete this objective, 100 μL of each of the ingredients was dispensed onto the center of four different Mueller Hinton Agar (MHA) plates. After letting the plates dry for ˜2 hours they were lawned with the following four bacteria: ECOL_ATCC_25922, SAUR_ATCC_29213, PROV_ATCC_6380 and PRMI_IHMA_827374. The following day the plates were measured for zones of inhibition. Following this, the pellet former recipe was optimized to exclude non-sterile components. […] Many fresh positive specimens of varying viscosities were then tested with an assay that incorporated this pellet former by adding 500 μL to the capsule with 1500 μL of BAL or mini-BAL specimen.

SAUR_ATCC_29213 = test: as above; format: cell-based, Staphylococcus aureus; conditions: 100 μL dispensed on MHA plate, lawned with SAUR_ATCC_29213
Experimental: as §1

PROV_ATCC_6380 = test: as above; format: cell-based, Proteus vulgaris; conditions: 100 μL dispensed on MHA plate, lawned with PROV_ATCC_6380
Experimental: as §1

PRMI_IHMA_827374 = test: as above; format: cell-based, Proteus mirabilis; conditions: 100 μL dispensed on MHA plate, lawned with PRMI_IHMA_827374
Experimental: as §1

[1] = tested on: ECOL_ATCC_25922, SAUR_ATCC_29213, PROV_ATCC_6380 and PRMI_IHMA_827374; test: Disk diffusion inhibition of RAM ingredients, all four lawned bacteria; format: cell-based
Experimental: Thus, each of the ingredients was checked for potential inhibition. […] To complete this objective, 100 μL of each of the ingredients was dispensed onto the center of four different Mueller Hinton Agar (MHA) plates. After letting the plates dry for ˜2 hours they were lawned with the following four bacteria: ECOL_ATCC_25922, SAUR_ATCC_29213, PROV_ATCC_6380 and PRMI_IHMA_827374. The following day the plates were measured for zones of inhibition.

## O=C(O)CN(CCN(CC(=O)O)CC(=O)O)CCN(CC(=O)O)CC(=O)O [DTPA alone, DTPA]
ECOL_ATCC_25922
  Disk Diffusion Inhibition (zone of inhibition): 7 mm
SAUR_ATCC_29213
  Disk Diffusion Inhibition (zone of inhibition): 19 mm
PROV_ATCC_6380
  Disk Diffusion Inhibition (zone of inhibition): 26 mm
PRMI_IHMA_827374
  Disk Diffusion Inhibition (zone of inhibition): 30 mm
[1]
  Inhibition by disk diffusion method: inhibited each of the organisms tested
